# Source: US10772934B2 (Longevity Biotech, Inc., priority 2010, dated 2020)
# No end group written: not given here.
# Columns and labels:
# VIPR1 = molecular target: T1, VIPR1 (Homo sapiens, UniProt P32241); assay: cAMP Hunter cell line functional assay, agonist mode (DiscoveRx HitHunter cAMP XS+); assay type: cell-based; details: for Mean RLU: Cell Line VIPR1, Mode Agonist, Readout cAMP
# T1 sequence (P32241 31-457): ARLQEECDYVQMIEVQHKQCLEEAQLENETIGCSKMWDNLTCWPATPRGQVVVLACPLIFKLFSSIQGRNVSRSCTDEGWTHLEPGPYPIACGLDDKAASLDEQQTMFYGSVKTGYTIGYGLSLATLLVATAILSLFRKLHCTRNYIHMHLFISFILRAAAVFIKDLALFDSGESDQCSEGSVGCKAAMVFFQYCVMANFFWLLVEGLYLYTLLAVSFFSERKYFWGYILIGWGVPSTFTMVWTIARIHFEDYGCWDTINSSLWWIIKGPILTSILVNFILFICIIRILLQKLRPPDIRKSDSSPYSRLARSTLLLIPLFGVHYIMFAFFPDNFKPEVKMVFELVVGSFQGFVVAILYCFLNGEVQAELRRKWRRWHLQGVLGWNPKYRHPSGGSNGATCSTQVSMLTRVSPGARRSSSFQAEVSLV
# Procedure: (§1) Once it was established that the cells were healthy and growing normally, cells were passaged from flasks using cell dissociation reagent buffer and seeded into white walled clear bottom 384-well microplates for compound profiling. For profiling, cells were seeded at a density of 10,000 cells per well in a total volume of 20 μL and were allowed to adhere and recover overnight prior to compound addition. cAMP modulation was determined using the DiscoveRx HitHunter cAMP XS+ assay.
# (§2) For profiling compound in agonist mode, the cells were incubated in the presence of compound at 37° C. for 30 minutes. […] After appropriate compound incubation, assay signal was generated through incubation with DiscoverX lysis cocktail according to the manufacturers standard protocol. Dose curves were plotted using GraphPad Prism or Activity Base. Percentage activity is calculated using the following formula: % Activity=100%×(mean RLU of test sample−mean RLU of vehicle control)/(mean RLU of MAX control−mean RLU of vehicle control).
# VIPR2 = molecular target: T2, VIPR2 (Homo sapiens, UniProt P41587); assay: as above; assay type: cell-based; details: for Mean RLU: Cell Line VIPR2, Mode Agonist, Readout cAMP
# T2 construct: host or cells: cAMP Hunter cell lines (CHO-K1 is named only in the prophetic assay)
# T2 sequence (P41587 24-438): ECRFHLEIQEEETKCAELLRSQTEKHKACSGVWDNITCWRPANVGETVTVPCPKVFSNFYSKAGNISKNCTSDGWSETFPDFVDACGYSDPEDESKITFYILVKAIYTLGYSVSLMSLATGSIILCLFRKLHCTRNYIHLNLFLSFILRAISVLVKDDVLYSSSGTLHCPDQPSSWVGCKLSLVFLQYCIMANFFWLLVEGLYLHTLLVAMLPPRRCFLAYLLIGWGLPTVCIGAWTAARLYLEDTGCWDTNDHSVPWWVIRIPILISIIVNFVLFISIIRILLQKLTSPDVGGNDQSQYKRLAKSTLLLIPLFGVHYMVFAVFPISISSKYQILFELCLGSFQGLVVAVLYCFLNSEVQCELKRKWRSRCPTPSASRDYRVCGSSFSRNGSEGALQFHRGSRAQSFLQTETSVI
# Procedure: as §1, §2
# G-actin monomers = details: 1:1 ratio; read-out: Kd, sequestration of G-actin monomers; cited from earlier work
# calcitonin (CT) receptor = details: cited from earlier work
# [1] = molecular target: calcitonin-gene related peptide (CGRP) receptors (Homo sapiens, UniProt O60894+Q16602); details: cited from earlier work
# calcitonin-gene related peptide (CGRP) receptors, sequence (Q16602 23-461): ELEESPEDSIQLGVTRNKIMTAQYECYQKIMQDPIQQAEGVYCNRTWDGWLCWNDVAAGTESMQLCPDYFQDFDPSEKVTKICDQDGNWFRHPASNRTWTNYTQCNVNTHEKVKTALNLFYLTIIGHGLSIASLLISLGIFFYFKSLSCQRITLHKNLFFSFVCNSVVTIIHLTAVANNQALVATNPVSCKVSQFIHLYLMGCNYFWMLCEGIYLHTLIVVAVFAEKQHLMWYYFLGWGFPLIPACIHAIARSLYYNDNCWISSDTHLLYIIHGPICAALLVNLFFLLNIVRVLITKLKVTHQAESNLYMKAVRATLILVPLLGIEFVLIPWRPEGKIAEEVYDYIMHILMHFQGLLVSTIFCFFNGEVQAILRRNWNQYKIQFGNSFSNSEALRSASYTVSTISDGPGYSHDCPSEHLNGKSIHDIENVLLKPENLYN
# calcitonin-gene related peptide (CGRP) receptors, sequence (O60894 27-148 partner): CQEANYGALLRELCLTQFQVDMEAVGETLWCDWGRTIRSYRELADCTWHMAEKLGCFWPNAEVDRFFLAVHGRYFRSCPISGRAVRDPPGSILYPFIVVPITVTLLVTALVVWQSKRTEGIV
# adrenomedullin receptors = adrenomedullin receptors (Homo sapiens, UniProt Q16602); details: cited from earlier work
# adrenomedullin receptors, sequence (Q16602 23-461): as the sequence (Q16602 23-461) above
# Glucagon receptor = molecular target: T3, Glucagon receptor (Rattus norvegicus, UniProt P30082); details: cited from earlier work
# T3 construct: from tissue; host or cells: rat liver membranes
# T3 sequence (P30082 27-485): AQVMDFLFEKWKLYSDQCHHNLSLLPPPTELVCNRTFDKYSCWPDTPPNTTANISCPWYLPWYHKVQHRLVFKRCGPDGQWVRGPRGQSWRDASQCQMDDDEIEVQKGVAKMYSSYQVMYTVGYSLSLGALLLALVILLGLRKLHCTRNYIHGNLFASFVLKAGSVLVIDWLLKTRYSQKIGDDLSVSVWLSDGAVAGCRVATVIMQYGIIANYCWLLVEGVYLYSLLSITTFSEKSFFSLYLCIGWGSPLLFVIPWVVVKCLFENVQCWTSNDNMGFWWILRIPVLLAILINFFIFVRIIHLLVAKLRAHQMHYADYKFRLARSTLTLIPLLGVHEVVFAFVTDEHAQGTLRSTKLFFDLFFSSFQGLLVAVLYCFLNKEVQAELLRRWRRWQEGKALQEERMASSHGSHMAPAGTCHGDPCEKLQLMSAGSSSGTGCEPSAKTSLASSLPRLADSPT
# [2] = system: vasoactive intestinal peptide (VIP); details: read-out: IC50, selective VIP antagonist; cited from earlier work
# glucagon receptors = glucagon receptors (Homo sapiens, UniProt P47871); details: cited from earlier work
# glucagon receptors, sequence (P47871 26-477): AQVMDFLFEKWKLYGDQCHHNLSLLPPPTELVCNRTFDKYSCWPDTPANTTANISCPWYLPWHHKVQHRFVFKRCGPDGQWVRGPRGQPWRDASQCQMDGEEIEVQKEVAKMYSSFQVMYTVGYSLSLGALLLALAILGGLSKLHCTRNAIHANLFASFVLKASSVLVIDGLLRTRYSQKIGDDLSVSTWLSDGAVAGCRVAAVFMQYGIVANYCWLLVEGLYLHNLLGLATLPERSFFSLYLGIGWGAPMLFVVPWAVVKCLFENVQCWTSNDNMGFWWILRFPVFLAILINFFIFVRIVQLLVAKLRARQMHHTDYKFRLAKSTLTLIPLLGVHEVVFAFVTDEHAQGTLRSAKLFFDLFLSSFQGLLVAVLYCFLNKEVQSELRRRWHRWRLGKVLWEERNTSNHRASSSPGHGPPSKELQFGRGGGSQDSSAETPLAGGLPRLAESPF
# secretin receptors = secretin receptors (Homo sapiens, UniProt P47872); details: cited from earlier work
# secretin receptors, sequence (P47872 23-440): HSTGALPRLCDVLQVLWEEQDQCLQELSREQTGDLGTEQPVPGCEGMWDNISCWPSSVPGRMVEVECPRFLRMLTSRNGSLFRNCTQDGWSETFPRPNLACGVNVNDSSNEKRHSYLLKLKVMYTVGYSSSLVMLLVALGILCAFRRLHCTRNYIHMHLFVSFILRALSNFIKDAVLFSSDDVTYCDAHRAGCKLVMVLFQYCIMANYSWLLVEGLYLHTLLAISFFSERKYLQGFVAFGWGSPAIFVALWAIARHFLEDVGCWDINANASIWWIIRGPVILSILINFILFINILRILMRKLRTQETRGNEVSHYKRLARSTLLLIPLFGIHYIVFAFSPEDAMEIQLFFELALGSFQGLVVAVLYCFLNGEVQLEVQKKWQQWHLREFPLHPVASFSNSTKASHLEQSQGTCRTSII
# GRF receptors = molecular target: T4, GRF receptors (Homo sapiens, UniProt Q02643); details: cited from earlier work
# T4 sequence (Q02643 23-423): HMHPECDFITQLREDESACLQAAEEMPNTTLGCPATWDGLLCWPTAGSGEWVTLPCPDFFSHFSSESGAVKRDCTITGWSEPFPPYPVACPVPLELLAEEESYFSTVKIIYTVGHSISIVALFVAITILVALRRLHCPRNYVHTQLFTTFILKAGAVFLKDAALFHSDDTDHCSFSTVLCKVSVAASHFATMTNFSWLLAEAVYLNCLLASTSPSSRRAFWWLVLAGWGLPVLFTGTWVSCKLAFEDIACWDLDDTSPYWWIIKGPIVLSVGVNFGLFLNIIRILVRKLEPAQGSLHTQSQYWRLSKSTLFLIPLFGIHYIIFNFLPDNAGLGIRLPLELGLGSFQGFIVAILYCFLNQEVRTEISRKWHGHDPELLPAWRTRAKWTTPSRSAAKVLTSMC
# [3] = in the blood stream; cited from earlier work
compound,measurement,setting,value
"CC[C@H](C)[C@H](NC(=O)[C@H]1CCC[C@@H]1NC(=O)[C@H](CC(N)=O)NC(=O)[C@H](CC(C)C)NC(=O)[C@H](Cc1ccc(O)cc1)NC(=O)[C@H]1CNC[C@@H]1NC(=O)[C@H](CCCCN)NC(=O)[C@@H](NC(=O)[C@H]1CCC[C@@H]1NC(=O)[C@H](CC(C)C)NC(=O)[C@H](CCC(N)=O)NC(=O)[C@H](CCCCN)NC(=O)[C@H]1CNC[C@@H]1NC(=O)[C@H](CC(C)C)NC(=O)[C@H](CCCNC(=N)N)NC(=O)[C@H]1CCC[C@@H]1NC(=O)[C@H](Cc1ccc(O)cc1)NC(=O)[C@H](CC(N)=O)NC(=O)[C@H](CC(=O)O)NC(=O)[C@@H](NC(=O)[C@H](Cc1ccccc1)NC(=O)[C@@H](NC(=O)[C@H](C)NC(=O)[C@H](CC(=O)O)NC(=O)[C@H](CO)NC(=O)[C@@H](N)Cc1c[nH]cn1)C(C)C)[C@@H](C)O)C(C)C)C(=O)N[C@@H](CC(C)C)C(=O)NC(CC(N)=O)CC(N)=O [Compound 8, HSDAVFTDNYXRLZKQLXVKZYLNXILN]",Mean RLU,VIPR1; [Compound] 1.00E−08 M,13700.0 RLU
same,Mean RLU,VIPR1; [Compound] 1.00E−09 M,10600.0 RLU
same,Mean RLU,VIPR1; [Compound] 1.00E−10 M,9060.0 RLU
same,Mean RLU,VIPR1; [Compound] 1.00E−11 M,10500.0 RLU
same,Mean RLU,VIPR1; [Compound] 1.00E−12 M,10340.0 RLU
same,Mean RLU,VIPR1; [Compound] 5.00E−08 M,95460.0 RLU
same,Mean RLU,VIPR1; [Compound] 5.00E−09 M,13200.0 RLU
same,Mean RLU,VIPR1; [Compound] 5.00E−10 M,9820.0 RLU
same,activation of VIPR1,"VIPR1; agonist mode, FIG. 3",fully activate
same,Mean RLU,VIPR2; [Compound] 1.00E−07 M,8920.0 RLU
same,Mean RLU,VIPR2; [Compound] 1.00E−08 M,9560.0 RLU
same,Mean RLU,VIPR2; [Compound] 1.00E−09 M,8560.0 RLU
same,Mean RLU,VIPR2; [Compound] 1.00E−10 M,7560.0 RLU
same,Mean RLU,VIPR2; [Compound] 1.00E−11 M,9280.0 RLU
same,Mean RLU,VIPR2; [Compound] 1.00E−12 M,8300.0 RLU
same,Mean RLU,VIPR2; [Compound] 5.00E−07 M,10200.0 RLU
same,Mean RLU,VIPR2; [Compound] 5.00E−08 M,9200.0 RLU
same,Mean RLU,VIPR2; [Compound] 5.00E−09 M,8560.0 RLU
same,Mean RLU,VIPR2; [Compound] 5.00E−10 M,9820.0 RLU
same,interaction with VIPR2,VIPR2; agonist mode,does not interact substantially
same,activation of VIPR2,"VIPR2; agonist mode, FIG. 3",not activate
Thymosin β4,Kd,G-actin monomers,700 to 1000 nM
"Calcitoninreceptor-stimulating peptide-1 (SCNTATCMTHRLVGLLSRSGSMVRSNLLPTKMGFKVFG-NH2; ends and bridges not checked; UniProt Q862B1 81-118, looked up)","ED50, stimulation of cAMP formation",calcitonin (CT) receptor; calcitonin (CT) receptor,0.2 nM
same,Potency in stimulating cAMP formation relative to CT,calcitonin (CT) receptor; greater than CT,350 fold
same,Activity at CGRP receptors,[1],Displays no activity at calcitonin-gene related peptide (CGRP) and adrenomedullin
same,Activity at adrenomedullin receptors,adrenomedullin receptors,Displays no activity at calcitonin-gene related peptide (CGRP) and adrenomedullin
des-His1-{Glu9}-Glucagon (1-29) amide,Agonist activity at the glucagon receptor,Glucagon receptor,adenylyl cyclase activation in rat liver membranes); displays no agonist activity.
same,pA2 for inhibition of glucagon-induced adenylyl cyclase activation,Glucagon receptor; rat liver membranes,(Glucagon receptor antagonist (pA2 = 7.2 for inhibition of glucagon-induced
"{D-p-Cl-Phe6,Leu17}-VIP",IC50,[2],126 nM
same,Activity on glucagon receptors,glucagon receptors,"Displays no activity on glucagon, secretin or GRF receptors.)"
same,Activity on secretin receptors,secretin receptors,"Displays no activity on glucagon, secretin or GRF receptors.)"
same,Activity on GRF receptors,GRF receptors,"Displays no activity on glucagon, secretin or GRF receptors.)"
CC[C@H](C)[C@H](NC(=O)[C@H](CO)NC(=O)[C@H](CC(N)=O)NC(=O)[C@H](CC(C)C)NC(=O)[C@H](Cc1ccc(O)cc1)NC(=O)[C@H](CCCCN)NC(=O)[C@H](CCCCN)NC(=O)[C@@H](NC(=O)[C@H](C)NC(=O)[C@H](CCSC)NC(=O)[C@H](CCC(N)=O)NC(=O)[C@H](CCCCN)NC(=O)[C@H](CCCN=C(N)N)NC(=O)[C@H](CC(C)C)NC(=O)[C@H](CCCN=C(N)N)NC(=O)[C@@H](NC(=O)[C@H](Cc1ccc(O)cc1)NC(=O)[C@H](CC(N)=O)NC(=O)[C@H](CC(=O)O)NC(=O)[C@@H](NC(=O)[C@H](Cc1ccccc1)NC(=O)[C@@H](NC(=O)[C@H](C)NC(=O)[C@H](CC(=O)O)NC(=O)[C@H](CO)NC(=O)[C@@H](N)Cc1c[nH]cn1)C(C)C)[C@@H](C)O)[C@@H](C)O)C(C)C)C(=O)N[C@@H](CC(C)C)C(=O)N[C@@H](CC(N)=O)C(N)=O [VIP],half-life,[3],about two
